According to patent US10870638B2, “Pyridazinone compound or its salt, and herbicide containing it” (ISHIHARA SANGYO KAISHA, LTD., priority 2016, dated 2020):

Experiments:
Assay type in all cases: in vivo
Conditions in all cases: active ingredient amount 31 g/ha, 14th day after application
[1] = tested on: soybean (Glycine max Merr.); test: Test Example 1: foliar treatment, growth inhibition rate on 14th day
Outline: (§1)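 Compounds applied once to leaves of pot-grown plants; wild oat at 0.4–1.2 leaf, foxtail 0.5–3.2, rice 0.2–2.7, soybean primary leaf. Inhibition estimated by eye on day 14.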

rice (Oryza sativa L.) [2] = test: as above
Outline: as §1

[3] = tested on: barnyardgrass (Echinochloa crus-qalli L.); test: as above
Outline: (§2)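 Visual 0–100% inhibition scoring (100 = complete kill) at 14 days after foliar treatment of soil-grown seedlings at species-specific leaf stages, with the compound sprayed as a wettable powder or emulsifiable concentrate dilution.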

[4] = tested on: crabgrass (Digitaria sanquinalis L.); test: as above
Outline: as §2

[5] = tested on: wild oat (Avena fatua L.); test: as above
Outline: as §1

[6] = tested on: redroot pigweed (Amaranthus retroflexus L.); test: as above
Outline: as §2

[7] = tested on: green foxtail (Setaria viridis L.); test: as above
Outline: as §1

corn (Zea mays L.) [8] = test: as above
Outline: as §2

[9] = tested on: italian ryegrass (Lolium multiflorum Lam.); test: as above
Outline: as §2

[10] = tested on: wheat (Triticum aestivum L.); test: as above
Outline: as §2

[11] = tested on: prickly sida (Sida spinosa L.); test: Test Example 2: soil application on the day after sowing, growth inhibition rate on 14th day
Outline: (§3)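 Read-out is visual percent growth inhibition 14 days post-application, scaled from 0 (as non-treated) to 100 (complete kill). Treatment: soil application by small sprayer the day after sowing, compound formulations diluted in water equivalent to 1,000 L/ha.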

[12] = tested on: soybean (Glycine max Merr.); test: as above
Outline: as §3

rice (Oryza sativa L.) [13] = test: as above
Outline: as §3

[14] = tested on: velvetleaf (Abutilon theophrasti MEDIC.); test: as above
Outline: as §3

[15] = tested on: barnyardgrass (Echinochloa crus-qalli L.); test: as above
Outline: as §3

[16] = tested on: redroot pigweed (Amaranthus retroflexus L.); test: as above
Outline: as §3

[17] = tested on: green foxtail (Setaria viridis L.); test: as above
Outline: as §3

corn (Zea mays L.) [18] = test: as above
Outline: as §3

[19] = tested on: crabgrass (Digitaris sanquinalis L.); test: as above
Outline: as §3

[20] = tested on: wheat (Triticum aestivum L.); test: as above
Outline: as §3

| SMILES | Growth inhibition rate (%) Soybean [1] [%] | Growth inhibition rate (%) Rice (rice (Oryza sativa L.) [2]) [%] | Growth inhibition rate (%) Barnyardgrass [3] [%] | Growth inhibition rate (%) Crabgrass [4] [%] | Growth inhibition rate (%) Wild oat [5] [%] | Growth inhibition rate (%) Redroot pigweed [6] [%] | Growth inhibition rate (%) Green foxtail [7] [%] | Growth inhibition rate (%) Corn (corn (Zea mays L.) [8]) [%] | Growth inhibition rate (%) Italian ryegrass [9] [%] | Growth inhibition rate (%) Wheat [10] [%] | Growth inhibition rate (%) Prickly sida [11] [%] | Growth inhibition rate (%) Soybean [12] [%] | Growth inhibition rate (%) Rice (rice (Oryza sativa L.) [13]) [%] | Growth inhibition rate (%) Velvetleaf [14] [%] | Growth inhibition rate (%) Barnyardgrass [15] [%] | Growth inhibition rate (%) Redroot pigweed [16] [%] | Growth inhibition rate (%) Green foxtail [17] [%] | Growth inhibition rate (%) Corn (corn (Zea mays L.) [18]) [%] | Growth inhibition rate (%) Crabgrass [19] [%] | Growth inhibition rate (%) Wheat [20] [%] |
| --- | --- | --- | --- | --- | --- | --- | --- | --- | --- | --- | --- | --- | --- | --- | --- | --- | --- | --- | --- | --- |
| COCOc1c(C)nn(C)c(=O)c1-c1cc(Oc2ncc(C(F)(F)F)cc2Cl)ccc1C [1-132] | 20 | 88 | 100 | 100 | 98 | 0 | 100 | 99 | 98 | 98 | 0 | 0 | 0 | 0 | 99 | 0 | 98 | 10 | 93 | 0 |
| CC(=O)Oc1c(C)nn(C)c(=O)c1-c1cc(Oc2cc(C(F)(F)F)c(C(F)(F)F)cn2)ccc1C [Compound 2-126] | 20 | 93 | 100 | 100 | 100 | 0 | 100 | 100 | 100 | 99 | 0 | 0 | 0 | 0 | 100 | 0 | 100 | 30 | 98 | 10 |
| CCc1ccc(Oc2nc3ccccc3o2)cc1-c1c(O)c(C)nn(C)c1=O [Compound 2-165] | 25 | 25 | 100 | 70 | 0 | 0 | 88 | 35 | 0 | 0 | 0 | 0 | 70 | 0 | 99 | 0 | 99 | 0 | 98 | 0 |
| Cc1ccc(Oc2ncc(C(F)(F)F)cc2F)cc1-c1c(O)c(C)nn(C)c1=O [Compound 2-5] | 0 | 85 | 100 | 99 | 95 | 20 | 100 | 75 | 95 | 40 | 0 | 0 | 80 | 0 | 100 | 0 | 100 | 65 | 100 | 30 |
| CCn1ncc(O)c(-c2cc(Oc3ncc(C(F)(F)F)cc3Cl)ccc2C)c1=O [1-157] | 20 | 80 | 100 | 100 | 100 | 0 | 100 | 100 | 99 | 93 | 0 | 30 | 40 | 0 | 100 | 0 | 100 | 0 | 99 | 0 |
